Values quoted from earlier work in patent US12667556B2, “Extended release injectable formulations comprising an isoxazoline active agent, methods and uses thereof” (BOEHRINGER INGELHEIM ANIMAL HEALTH USA INC., priority 2015, dated 2026).
In brackets after ≈: the same amount, converted by molar mass.

Test system: fleas

In the case of `O=C(CNC(=O)c1ccc(C2=NOC(c3cc(Cl)cc(C(F)(F)F)c3)(C(F)(F)F)C2)c2ccccc12)NCC(F)(F)F` (centres unmarked) [compound (IIc), 4-[5-[3-chloro-5-(trifluoromethyl)phenyl]-4,5-dihydro-5-(trifluoromethyl)-3-isoxazolyl]-N-[2-oxo-2-[(2,2,2-trifluoroethyl)amino]ethyl]-1-naphthalenecarboxamide], the “EC90 (plasma concentration) against fleas on dogs” value (Letendre et al., Veterinary Parasitology 201 (2014) 190-197) is given as 0.023 µg/mL (≈ 0.0367 µM) and the “plasma concentration known to effectively control fleas on dogs” value (known, literature) is given as “about 20 ng/ml”.
